Source: US9150505B2, “Prophylactic or therapeutic agent for diabetes or obesity” (AJINOMOTO CO., INC., priority 2010, dated 2015)

Legend:
[1] = tested on: NCI-H716 cells; assay: Promotion of GLP-1 secretion in NCI-H716 cells; format: cell-based, human; conditions: 30 minutes at 37° C., buffer assumed to be 1.0
Experimental: Human appendix-derived cell line NCI-H716 (ATCC No CCL-251) was cultured in a 10% FBS-containing DMEM/HamF-12 medium at 37° C. in the presence of 5% CO2. NCI-H716 cells were seeded in a poly-D-lysine-coated 96-well plate at 100,000 cells/well and cultured for two days. Prior to sample addition, wells were washed with Hepes buffer (20 mM Hepes, 146 mM NaCl, 5 mM KCl, 1.5 mM CaCl2, 1 mM MgSO4, 5.5 mM D-glucose, 0.2% BSA, pH 7.4). Fifty μl of a sample solution dissolved in the same buffer was added and incubated at 37° C. for 30 minutes. The above-described compounds in Example 6 (Compound 1) (10 mM), Example 48 (Compound 2) (5 mM) and Example 14 (Compound 3) (2 mM) were used as the samples. In addition, a Hepes buffer was used as a control. After collecting the supernatant, the cells were precipitated by centrifugation (5,000×g, 1 min.) to collect the supernatant thereof. GLP-1 level in the supernatant was determined as described below according to a quantitative method for GLP-1 that uses GLP-1 receptor gene expression cells.
According to a routine method (Lopez de Maturana R, Willshaw A, Kuntzsch A, Rudolph R, Donnelly D. J Biol Chem. 2003 Mar. 21; 278 (12):10195-200), human GLP-1 receptor gene (Nucleotide sequence 1) was integrated into pcDNA3.1 to prepare human GLP-1 receptor gene expression plasmid hGLP-1R/pcDNA3.1. Moreover, chimeric gene (Nucleotide sequence 2) of human Gα15 gene and human gustducin gene was integrated into pcDNA3.1 to prepare G protein expression plasmid Gα15-gust/pcDNA3.1. […] After 24 hours of cultivation in a CO2 incubator, changes in the fluorescence intensity were determined starting immediately after sample addition according to the Ca^2+ fluorescence indicator FLIPR Calcium 4 Assay Kit protocol (Molecular Devices) using FlexStation (Molecular Devices). Concentration dependency of human GLP-1 (7-36 Amide; Peptide Institute) with respect to the changes in the fluorescence intensity was determined and used as a standard curve for quantitating the sample. […]

[2] = tested on: NCI-H716 cells; assay: Promotion of CCK secretion in NCI-H716 cells; format: cell-based, human
Experimental: Human appendix-derived cell line NCI-H716 (ATCC No CCL-251) was cultured in a 10% FBS-containing DMEM/HamF-12 medium at 37° C. in the presence of 5% CO2. NCI-H716 cells were seeded in a poly-D-lysine-coated 24-well plate at 600,000 cells/well and cultured for two days. Prior to sample addition, wells were washed with Hepes buffer (20 mM Hepes, 146 mM NaCl, 5 mM KCl, 1.5 mM CaCl2, 1 mM MgSO4, 5.5 mM D-glucose, 0.02% BSA, pH 7.4). 300 μl of a sample solution dissolved in the same buffer was added and incubated at 37° C. for 30 minutes. Compound 1 in Example 6 (2 mM) and Compound 2 in Example 48 (1 mM) were used as the samples. In addition, a Hepes buffer was used as a control. After collecting the supernatant, the cells were precipitated by centrifugation (5,000×g, 1 min.) to collect the supernatant thereof, which was lyophilized in Speed Vac Concentrator (SAVANT) and dissolved by addition of 60 μl of water. CCK level in the solution was determined using Enzyme immuno assay kit (EK-069-04; PHENOIX PHARMACEUTICALS).

[3] = tested on: normal mice (C57BL/6J); assay: Effects on gastric emptying using mouse (phenol red method); format: in vivo; conditions: 2.4 nmol/kg subcutaneously, 24 h fasted mice, phenol red 15 min after drug, stomach resected 20 min later; vehicle 82.4 ± 7.0%
Experimental: A dosing vehicle (distilled water) or 3 mg/kg of the compound in Example 6 (Compound 1) was orally administered in a forced manner using a mouse sonde to normal mice (C57BL/6J, 7-week-old) after 24 hours of fasting. As positive controls, a group subcutaneously injected with Exendin-4 (Sigma) (2.4 nmol/kg) that was known to have an effect of suppressing gastric emptying was also prepared. 10 ml/kg of dosing vehicle was also orally administered to the mice of the Exendin-4 group. Fifteen minutes after drug administration, phenol red solution (0.5 mg/ml phenol red+1.5% methylcellulose+distilled water) was orally administered in a forced manner at a volume of 5 ml/kg. After another 20 minutes, the stomach was resected from each mouse and phenol red remaining in the stomach was extracted in 0.1N NaOH solution. Absorbance of the extracted solution was determined at 560 nm to quantitate the amount of remaining phenol red (S). While the amount of phenol red (C) extracted from the stomach resected immediately after the administration of phenol red was assumed to be 100%, the amount of remaining phenol red […] with respect to C was calculated, as a gastric emptying volume (%), based on the following expression. Gastric emptying volume(%)=(1−(S/C))×100

Cc1c(Cl)cc(S(=O)(=O)O)cc1NC(=O)NC[C@H](N)C(=O)O [Example 14, (2S)-2-amino-3-{[(3-chloro-2-methyl-5-sulfophenyl)carbamoyl]amino}propanoic acid]
Relative secretion volumes (GLP-1) ([1]; 2 mM): 3.54

Cc1c(Cl)cc(NC(=S)NC[C@H](N)C(=O)O)cc1S(=O)(=O)O [Example 48, (2S)-2-amino-3-{[(3-chloro-4-methyl-5-sulfophenyl)carbamothioyl]amino}propanoic acid]
Relative secretion volumes (GLP-1) ([1]; 5 mM): 15.42
Relative secretion volumes (CCK) ([2]; 1 mM, 30 minutes at 37° C., buffer assumed to be 1.0): 2.22
effect of promoting CCK secretion ([2]; result in words): confirmed to have an effect of promoting CCK secretion

Exendin-4: Positive control (Sigma), known to have an effect of suppressing gastric emptying
Gastric emptying volume [3]: 51.2 ± 4.2% (*)
